Measurements taken from patent US20140303164A1, “THERAPEUTIC COMPOUNDS” (Gilead Sciences, Inc., priority 2013, published 2014).

What was measured:
HIV-IIIb = assay: Test A: Antiviral Assay in MT4 Cells; assay type: cell-based, HIV-1; details: Human immunodeficiency virus 1, IIIB, MT4, 120 h; for inhibition at 0.2 µM: read-out: % inhibition at 0.2 μM; for inhibition at 2 µM: read-out: % inhibition at 2 μM
Procedure: Test A: Antiviral Assay in MT4 Cells
MT-4 cells were next mixed with HIV-IIIb at an m.o.i of 0.003 for 1 hour, after which time 35 μL of virus/cell mixture (2000 cells) was immediately added to each well containing 40 μL of diluted compound. The plates were then incubated at 37° C. for 5 days. […] Cell lysis was carried out by incubating at room temperature for 10 min and then chemiluminescence was read.

[1] = Test B: Cytotoxicity Assay; assay type: cell-based; details: human, uninfected MT-4 cells, same protocol as Test A
In short: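 Uninfected MT-4 cells (2000 per well) incubated with diluted compound at 37° C. for 5 days, following the antiviral protocol without HIV-IIIb.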

Question: What does the source list for `Cn1nc(NS(C)(=O)=O)c2c(Cl)ccc(-c3ccc(-c4cnc(C(C)(C)C)s4)nc3[C@H](Cc3cc(F)cc(F)c3)NC(=O)Cn3nc(C(F)(F)F)c4c3C(F)(F)[C@@H]3C[C@H]43)c21` [Compound 178, N—((S)-1-(6-(2-(tert-butyl)thiazol-5-yl)-3-(4-chloro-1-methyl-3-(methylsulfonamido)-1H-indazol-7-yl)pyridin-2-yl)-2-(3,5-difluorophenyl)ethyl)-2-((3b-S,4aR)-5,5-difluoro-3-(trifluoromethyl)-3b,4,4a,5-tetrahydro-1H-cyclopropa[3,4]cyclopenta[1,2-c]pyrazol-1-yl)acetamide]?
Answer: inhibition at 0.2 µM (HIV-IIIb): 95%; inhibition at 2 µM (HIV-IIIb): 100%; CC50 at 5 days [1]: 14 µM

Question: For `Cn1nc(N)c2cccc(-c3cnc(C#CC(C)(C)O)nc3[C@H](Cc3cc(F)cc(F)c3)NC(=O)Cn3nc(C(F)F)c4c3C(F)(F)CCC4(F)F)c21` [Compound 37F, (S)—N-(1-(5-(3-amino-1-methyl-1H-indazol-7-yl)-2-(3-hydroxy-3-methylbut-1-yn-1-yl)pyrimidin-4-yl)-2-(3,5-difluorophenyl)ethyl)-2-(3-(difluoromethyl)-4,4,7,7-tetrafluoro-4,5,6,7-tetrahydro-1H-indazol-1-yl)acetamide], which inhibition at 0.2 µM (HIV-IIIb) is on record?
Answer: Its inhibition at 0.2 µM is 90%.

Question: What about the inhibition at 2 µM (HIV-IIIb) of the same compound?
Answer: Its inhibition at 2 µM is 90%.

Question: What about the CC50 at 5 days [1] of the same compound?
Answer: Its CC50 at 5 days is 6.35 µM.

Question: For `Cn1nc(NS(C)(=O)=O)c2c(Cl)ccc(-c3ccc(C#CC(C)(C)O)nc3[C@H](Cc3cc(F)cc(F)c3)NC(=O)Cn3nc(C(F)F)cc3C(F)F)c21` [Compound 189, (S)-2-(3,5-bis(difluoromethyl)-1H-pyrazol-1-yl)-N-(1-(3-(4 chloro-1-methyl-3-(methylsulfonamido)-1H-indazol-7-yl)-6-(3-hydroxy-3-methylbut-1-yn-1-yl)pyridin-2-yl)-2-(3,5-difluorophenyl)ethyl)acetamide], which inhibition at 0.2 µM (HIV-IIIb) is on record?
Answer: Its inhibition at 0.2 µM is 88%.

Question: And the inhibition at 2 µM (HIV-IIIb)?
Answer: Its inhibition at 2 µM is 88%.

Question: What about the CC50 at 5 days [1] of the same compound?
Answer: The CC50 at 5 days was 17.2 µM.

Question: Which inhibition at 0.2 µM (HIV-IIIb) does the source give for `C[C@H](O)C(=O)Nc1nn(C)c2c(-c3ccc(C#CC(C)(C)O)nc3[C@H](Cc3cc(F)cc(F)c3)NC(=O)Cn3nc(C(F)F)c4c3C(F)(F)[C@@H]3C[C@H]43)ccc(Cl)c12` [Compound 103, (S)—N-(4-chloro-7-(2-((S)-1-(2-((3bS,4aR)-3-(difluoromethyl)-5,5-difluoro-3b,4,4a,5-tetrahydro-1H-cyclopropa[3,4]cyclopenta[1,2-c]pyrazol-1-yl)acetamido)-2-(3,5-difluorophenyl)ethyl)-6-(3-hydroxy-3-methylbut-1-yn-1-yl)pyridin-3-yl)-1-methyl-1H-indazol-3-yl)-2-hydroxypropanamide] here?
Answer: The inhibition at 0.2 µM was 100%.

Question: What about the inhibition at 2 µM (HIV-IIIb) of the same compound?
Answer: Its inhibition at 2 µM is 100%.

Question: What about the CC50 at 5 days [1] of the same compound?
Answer: Its CC50 at 5 days is 6.79 µM.

Question: With `C[C@H](O)C#Cc1ccc(-c2ccc(Cl)c3c(NS(C)(=O)=O)nn(C)c23)c([C@H](Cc2cc(F)cc(F)c2)NC(=O)Cn2nc(C(F)F)c3c2C(F)(F)[C@@H]2C[C@H]32)n1` [Compound 142, N—((S)-1-(3-(4-chloro-1-methyl-3-(methylsulfonamido)-1H-indazol-7-yl)-6-((S)-3-hydroxybut-1-yn-1-yl)pyridin-2-yl)-2-(3,5-difluorophenyl)ethyl)-2-((3bS,4aR)-3-(difluoromethyl)-5,5-difluoro-3b,4,4a,5-tetrahydro-1H-cyclopropa[3,4]cyclopenta[1,2-c]pyrazol-1-yl)acetamide] as the compound, how does the inhibition at 0.2 µM (HIV-IIIb) read?
Answer: Its inhibition at 0.2 µM is 92%.

Question: And the inhibition at 2 µM (HIV-IIIb)?
Answer: The inhibition at 2 µM was 92%.

Question: What about the CC50 at 5 days [1] of the same compound?
Answer: The CC50 at 5 days was 12.6 µM.

Question: With `CCC(=O)Nc1nn(C)c2c(-c3ccc(C#CC(C)(C)O)nc3[C@H](Cc3cc(F)cc(F)c3)NC(=O)Cn3nc(C(F)F)c4c3C(F)(F)[C@@H]3C[C@H]43)ccc(Cl)c12` [Compound 95, N-(4-chloro-7-(2-((S)-1-(2-((3b-S,4aR)-3-(difluoromethyl)-5,5-difluoro-3b,4,4a,5-tetrahydro-1H-cyclopropa[3,4]cyclopenta[1,2-c]pyrazol-1-yl)acetamido)-2-(3,5-difluorophenyl)ethyl)-6-(3-hydroxy-3-methylbut-1-yn-1-yl)pyridin-3-yl)-1-methyl-1H-indazol-3-yl)propionamide] as the compound, how does the inhibition at 0.2 µM (HIV-IIIb) read?
Answer: Its inhibition at 0.2 µM is 93%.

Question: And the inhibition at 2 µM (HIV-IIIb)?
Answer: Its inhibition at 2 µM is 93%.

Question: What about the CC50 at 5 days [1] of the same compound?
Answer: Its CC50 at 5 days is 6.51 µM.

Question: What does the source list for `CC(C)(O)C#Cc1ncc(-c2ccc(F)c(C(N)=O)c2)c([C@H](Cc2cc(F)cc(F)c2)NC(=O)Cn2nc(C(F)(F)F)c3c2C(F)(F)[C@@H]2C[C@H]32)n1` [Compound 23B, 5-(4-((S)-1-(2-((3bS,4aR)-5,5-difluoro-3-(trifluoromethyl)-3b,4,4a,5-tetrahydro-1H-cyclopropa[3,4]cyclopenta[1,2-c]pyrazol-1-yl)acetamido)-2-(3,5-difluorophenyl)ethyl)-2-(3-hydroxy-3-methylbut-1-yn-1-yl)pyrimidin-5-yl)-2-fluorobenzamide]?
Answer: inhibition at 0.2 µM (HIV-IIIb): 83%; inhibition at 2 µM (HIV-IIIb): 88%; CC50 at 5 days [1]: 7.62 µM

Question: For `Cn1nc(NS(C)(=O)=O)c2c(Cl)ccc(-c3ccc(C#CC(C)(O)CNC(=O)OC(C)(C)C)nc3[C@H](Cc3cc(F)cc(F)c3)NC(=O)Cn3nc(C(F)(F)F)c4c3C(F)(F)[C@@H]3C[C@H]43)c21` (stereo partly drawn) [Compound 184, tert-butyl (4-(5-(4-chloro-1-methyl-3-(methylsulfonamido)-1H-indazol-7-yl)-6-((S)-1-(2-((3bS,4aR)-5,5-difluoro-3-(trifluoromethyl)-3b,4,4a,5-tetrahydro-1H-cyclopropa[3,4]cyclopenta[1,2-c]pyrazol-1-yl)acetamido)-2-(3,5-difluorophenyl)ethyl)pyridin-2-yl)-2-hydroxy-2-methylbut-3-yn-1-yl)carbamate], which inhibition at 0.2 µM (HIV-IIIb) is on record?
Answer: Its inhibition at 0.2 µM is 90%.

Question: And the inhibition at 2 µM (HIV-IIIb)?
Answer: The inhibition at 2 µM was 90%.

Question: And the CC50 at 5 days [1]?
Answer: Its CC50 at 5 days is 7.69 µM.

Question: Which results are given for `CC(=O)Nc1nn(CC(=O)N[C@@H](Cc2cc(F)cc(F)c2)c2nc(C#CC(C)(C)O)ccc2-c2ccc(Cl)c3c(NS(C)(=O)=O)nn(C)c23)c2c1[C@H]1C[C@H]1C2(F)F` [Compound 163, 2-((3bS,4aR)-3-acetamido-5,5-difluoro-3b,4,4a,5-tetrahydro-1H-cyclopropa[3,4]cyclopenta[1,2-c]pyrazol-1-yl)-N—((S)-1-(3-(4-chloro-1-methyl-3-(methylsulfonamido)-1H-indazol-7-yl)-6-(3-hydroxy-3-methylbut-1-yn-1-yl)pyridin-2-yl)-2-(3,5-difluorophenyl)ethyl)acetamide]?
Answer: inhibition at 0.2 µM (HIV-IIIb): 79%; inhibition at 2 µM (HIV-IIIb): 86%; CC50 at 5 days [1]: 8.85 µM

Question: Which inhibition at 0.2 µM (HIV-IIIb) does the source give for `Cn1nc(NC(N)=O)c2c(Cl)ccc(-c3ccc(C#CC(C)(C)O)nc3[C@H](Cc3cc(F)cc(F)c3)NC(=O)Cn3nc(C(F)F)c4c3C(F)(F)[C@@H]3C[C@H]43)c21` [Compound 92, N—((S)-1-(3-(4-chloro-1-methyl-3-ureido-1H-indazol-7-yl)-6-(3-hydroxy-3-methylbut-1-yn-1-yl)pyridin-2-yl)-2-(3,5-difluorophenyl)ethyl)-2-((3bS,4aR)-3-(difluoromethyl)-5,5-difluoro-3b,4,4a,5-tetrahydro-1H-cyclopropa[3,4]cyclopenta[1,2-c]pyrazol-1-yl)acetamide] here?
Answer: Its inhibition at 0.2 µM is 100%.

Question: What about the inhibition at 2 µM (HIV-IIIb) of the same compound?
Answer: The inhibition at 2 µM was 100%.

Question: What about the CC50 at 5 days [1] of the same compound?
Answer: The CC50 at 5 days was 6.24 µM.

Question: With `Cn1nc(NC(=O)CO)c2c(Cl)ccc(-c3ccc(C#CC(C)(C)O)nc3[C@H](Cc3cc(F)cc(F)c3)NC(=O)Cn3nc(C(F)F)c4c3C(F)(F)[C@@H]3C[C@H]43)c21` [Compound 88, N—((S)-1-(3-(4-chloro-3-(2-hydroxyacetamido)-1-methyl-1H-indazol-7-yl)-6-(3-hydroxy-3-methylbut-1-yn-1-yl)pyridin-2-yl)-2-(3,5-difluorophenyl)ethyl)-2-((3b-S,4aR)-3-(difluoromethyl)-5,5-difluoro-3b,4,4a,5-tetrahydro-1H-cyclopropa[3,4]cyclopenta[1,2-c]pyrazol-1-yl)acetamide] as the compound, how does the inhibition at 0.2 µM (HIV-IIIb) read?
Answer: Its inhibition at 0.2 µM is 100%.

Question: What about the inhibition at 2 µM (HIV-IIIb) of the same compound?
Answer: Its inhibition at 2 µM is 100%.

Question: And the CC50 at 5 days [1]?
Answer: The CC50 at 5 days was 8.49 µM.

Question: For `Cn1nc(NC(=O)c2ccno2)c2c(Cl)ccc(-c3ccc(C#CC(C)(C)O)nc3[C@H](Cc3cc(F)cc(F)c3)NC(=O)Cn3nc(C(F)F)c4c3C(F)(F)[C@@H]3C[C@H]43)c21` [Compound 87, N-(4-chloro-7-(2-((S)-1-(2-((3b-S,4aR)-3-(difluoromethyl)-5,5-difluoro-3b,4,4a,5-tetrahydro-1H-cyclopropa[3,4]cyclopenta[1,2-c]pyrazol-1-yl)acetamido)-2-(3,5-difluorophenyl)ethyl)-6-(3-hydroxy-3-methylbut-1-yn-1-yl)pyridin-3-yl)-1-methyl-1H-indazol-3-yl)isoxazole-5-carboxamide], which inhibition at 0.2 µM (HIV-IIIb) is on record?
Answer: The inhibition at 0.2 µM was 95%.

Question: What about the inhibition at 2 µM (HIV-IIIb) of the same compound?
Answer: Its inhibition at 2 µM is 96%.

Question: What about the CC50 at 5 days [1] of the same compound?
Answer: Its CC50 at 5 days is 6.8 µM.

Question: What does the source list for `Cc1n[nH]c2cccc(-c3ccc(C#CC(C)(C)O)nc3[C@H](Cc3cc(F)cc(F)c3)NC(=O)Cn3nc(C(F)(F)F)c4c3C(F)(F)[C@@H]3C[C@H]43)c12` [Compound 79, 2-((3bS,4aR)-5,5-difluoro-3-(trifluoromethyl)-3b,4,4a,5-tetrahydro-1H-cyclopropa[3,4]cyclopenta[1,2-c]pyrazol-1-yl)-N—((S)-2-(3,5-difluorophenyl)-1-(6-(3-hydroxy-3-methylbut-1-yn-1-yl)-3-(3-methyl-1H-indazol-4-yl)pyridin-2-yl)ethyl)acetamide]?
Answer: inhibition at 0.2 µM (HIV-IIIb): 100%; inhibition at 2 µM (HIV-IIIb): 100%; CC50 at 5 days [1]: 4.72 µM

Question: What does the source list for `Cc1[nH]c2ccc(O)cc2c1CC(=O)N[C@@H](Cc1cc(F)cc(F)c1)c1nc(C#CC(C)(C)O)ccc1-c1ccc(Cl)c2c(NS(C)(=O)=O)nn(C)c12` [Compound 192, (S)—N-(1-(3-(4 chloro-1-methyl-3-(methylsulfonamido)-1H-indazol-7-yl)-6-(3-hydroxy-3-methylbut-1-yn-1-yl)pyridin-2-yl)-2-(3,5-difluorophenyl)ethyl)-2-(5-hydroxy-2-methyl-1H-indol-3-yl)acetamide]?
Answer: inhibition at 0.2 µM (HIV-IIIb): 95%; inhibition at 2 µM (HIV-IIIb): 98%; CC50 at 5 days [1]: 28.8 µM
